# According to ChEMBL document CHEMBL1201862, “PubChem BioAssay data set” (2004):
# Activity calls are given as the source filed them.
# How the values were obtained:
# Nonstructural protein 1 = Nonstructural protein 1 (Influenza A virus, UniProt Q194T2); assay type: functional, Influenza A virus (A/California/07/2009(H1N1))
# Cytochrome P450 3A4 = Cytochrome P450 3A4 (Homo sapiens, UniProt P08684);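 note: CYP3A4 tested as one member of a cytochrome P450 panel screen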
# cells = assay type: functional
# Cytochrome P450 2D6 = Cytochrome P450 2D6 (Homo sapiens, UniProt P10635);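 note: CYP2D6 member of a cytochrome P450 panel assay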
# Cytochrome P450 2C9 = Cytochrome P450 2C9 (Homo sapiens, UniProt P11712)
# [1] = molecular target: T1, Carboxy-terminal domain RNA polymerase II polypeptide A small phosphatase 1 (Homo sapiens, UniProt Q9GZU7); experiment: CTDSP1 inhibitors, concentration-response, biochemical, absorbance readout, ultra-high-throughput screen actives (AID 540297); assay type: functional
# T1 sequence (Q9GZU7 whole entry): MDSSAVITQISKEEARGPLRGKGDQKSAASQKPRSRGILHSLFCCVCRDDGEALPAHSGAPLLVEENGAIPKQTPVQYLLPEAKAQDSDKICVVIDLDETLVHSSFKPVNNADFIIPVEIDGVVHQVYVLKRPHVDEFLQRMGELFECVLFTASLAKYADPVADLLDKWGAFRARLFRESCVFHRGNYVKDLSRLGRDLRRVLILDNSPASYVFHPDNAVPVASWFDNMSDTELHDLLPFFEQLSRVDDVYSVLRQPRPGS
# [2] = molecular target: Luciferin 4-monooxygenase (Photinus pyralis, UniProt P08659); experiment: inhibition of purified Photinus pyralis luciferase – biochemical, luminescence, dose response (AID 1891)
# [3] = Luminescence Cell-Based Dose Confirmation HTS to Identify Inhibitors of Platelet Dense Granule Release. [Related pubchem assays: 1663 (Primary HTS), 1678 (Summary of Project)]; assay type: functional
# [4] = luciferase reporter signal suppression in cells – H4 neuroglioma cells, luminescence, dose response (AID 1990); assay type: functional, cell-based
# [5] = alpha-synuclein stem-loop luciferase translation blockers – H4 neuroglioma cells, luminescence, confirmation (AID 1988); assay type: functional, cell-based
# [6] = Luminescence Cell-Based Dose Response HTS to Identify Inhibitors of 5'UTR Stem-Loop Driven Prion Protein mRNA Translation in H4 Neuroglioblastoma Cells. [Related pubchem assays: 1827 (Project Summary), 1813 (Primary HTS)]; assay type: functional
# Protein skinhead-1 = molecular target: T2, Protein skinhead-1 (Caenorhabditis elegans, UniProt P34707); assay type: functional
# T2 sequence (P34707 whole entry): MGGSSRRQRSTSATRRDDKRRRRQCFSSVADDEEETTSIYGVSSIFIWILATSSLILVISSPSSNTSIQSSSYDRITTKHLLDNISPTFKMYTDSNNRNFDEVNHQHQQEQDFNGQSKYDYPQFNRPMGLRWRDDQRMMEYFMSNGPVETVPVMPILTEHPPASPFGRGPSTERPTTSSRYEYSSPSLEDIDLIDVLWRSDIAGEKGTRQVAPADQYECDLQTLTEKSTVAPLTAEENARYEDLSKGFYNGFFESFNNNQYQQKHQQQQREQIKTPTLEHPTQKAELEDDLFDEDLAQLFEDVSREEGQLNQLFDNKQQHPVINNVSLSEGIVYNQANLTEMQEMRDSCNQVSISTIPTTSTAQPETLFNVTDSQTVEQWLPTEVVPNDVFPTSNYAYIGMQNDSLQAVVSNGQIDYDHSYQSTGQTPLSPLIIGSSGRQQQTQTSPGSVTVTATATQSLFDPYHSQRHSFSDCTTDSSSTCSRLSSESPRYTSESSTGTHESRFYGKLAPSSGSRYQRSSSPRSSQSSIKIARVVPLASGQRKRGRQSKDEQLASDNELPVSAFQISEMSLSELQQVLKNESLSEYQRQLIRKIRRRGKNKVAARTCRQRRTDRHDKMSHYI
# [7] = molecular target: T3, Polyadenylate-binding protein 1 (Homo sapiens, UniProt P11940); experiment: MLLE domain peptide-binding blockers, IC50 – biochemical, fluorescence polarization, FITC-PAM2 peptide, dose response (AID 602259); assay type: functional; details: read-out: IC50_Mean
# [8] = molecular target: T3, Polyadenylate-binding protein 1; experiment: MLLE binding blockers, Cy5 peptide tracer – biochemical, fluorescence polarization, Cy5-PAM2 peptide, secondary, miRNA deadenylation inhibitor project, dose response (AID 602260); assay type: functional; details: read-out: IC50_Mean
# [9] = molecular target: T4, Heat shock factor protein 1 (Mus musculus, UniProt P38532); experiment: enhancement of HSF1-driven luciferase signal – cell-based, NIH3T3, luminescence, dose retest, confirmation (AID 435004); assay type: functional;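 note: stress induced by proteasome inhibitor MG132 added 30 min after compound; luciferase reporter driven by HSF1 response element in NIH3T3 cells; actives raise luminescence as potentiators of the MG132 stress response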
# T4 sequence (P38532 whole entry): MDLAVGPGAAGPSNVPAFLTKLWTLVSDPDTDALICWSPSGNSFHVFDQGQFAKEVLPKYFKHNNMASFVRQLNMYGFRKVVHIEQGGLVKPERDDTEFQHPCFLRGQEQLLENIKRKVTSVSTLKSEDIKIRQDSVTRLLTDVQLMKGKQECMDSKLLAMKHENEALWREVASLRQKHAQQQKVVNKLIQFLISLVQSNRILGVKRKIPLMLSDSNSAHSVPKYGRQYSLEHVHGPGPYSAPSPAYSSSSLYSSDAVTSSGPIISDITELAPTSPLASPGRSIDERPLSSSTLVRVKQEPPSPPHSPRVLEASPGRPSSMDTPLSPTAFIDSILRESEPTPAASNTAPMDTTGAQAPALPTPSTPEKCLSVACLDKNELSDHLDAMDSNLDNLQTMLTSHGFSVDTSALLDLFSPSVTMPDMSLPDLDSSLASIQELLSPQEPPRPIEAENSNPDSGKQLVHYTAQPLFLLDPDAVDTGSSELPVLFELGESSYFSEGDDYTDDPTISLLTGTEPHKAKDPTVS
# H9c2 = experiment: cells; assay type: functional, cell-based; details: Rattus norvegicus, H9c2, Myocardium;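 note: confirmatory concentration-response retest of ultra-high-throughput screening hits for modulation of myocardial damage; cell death induced by hydrogen peroxide oxidative stress; compound pretreatment for 60 min then peroxide exposure for 2 h; potency is for protecting the cells against peroxide damage rather than for killing them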
# [10] = Luminescence Cell-Based Dose Retest to Confirm Inhibitors of Cancer Stem Cells. [Related pubchem assays (depositor defined):AID2717, AID2721]; assay type: functional; details: Homo sapiens
# [11] = molecular target: T5, RNA-binding protein pos-1 (Caenorhabditis elegans, UniProt G5EF15); experiment: disruptors of C. elegans POS-1 RNA interaction – biochemical, fluorescence polarization, dose response (AID 1964);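 note: purified POS-1 fused to maltose binding protein made in E. coli; potency of compounds blocking POS-1 binding to fluorescent RNA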
# T5 sequence (G5EF15 whole entry): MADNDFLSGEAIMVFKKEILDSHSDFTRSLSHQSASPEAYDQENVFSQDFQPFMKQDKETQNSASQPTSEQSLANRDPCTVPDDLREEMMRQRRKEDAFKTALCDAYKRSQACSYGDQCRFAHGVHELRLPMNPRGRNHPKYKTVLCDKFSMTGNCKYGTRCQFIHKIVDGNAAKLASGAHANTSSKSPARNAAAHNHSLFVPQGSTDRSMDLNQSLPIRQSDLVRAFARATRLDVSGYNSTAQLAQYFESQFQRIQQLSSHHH
# Chain of Luciferin 4-monooxygenase (P08659 whole entry): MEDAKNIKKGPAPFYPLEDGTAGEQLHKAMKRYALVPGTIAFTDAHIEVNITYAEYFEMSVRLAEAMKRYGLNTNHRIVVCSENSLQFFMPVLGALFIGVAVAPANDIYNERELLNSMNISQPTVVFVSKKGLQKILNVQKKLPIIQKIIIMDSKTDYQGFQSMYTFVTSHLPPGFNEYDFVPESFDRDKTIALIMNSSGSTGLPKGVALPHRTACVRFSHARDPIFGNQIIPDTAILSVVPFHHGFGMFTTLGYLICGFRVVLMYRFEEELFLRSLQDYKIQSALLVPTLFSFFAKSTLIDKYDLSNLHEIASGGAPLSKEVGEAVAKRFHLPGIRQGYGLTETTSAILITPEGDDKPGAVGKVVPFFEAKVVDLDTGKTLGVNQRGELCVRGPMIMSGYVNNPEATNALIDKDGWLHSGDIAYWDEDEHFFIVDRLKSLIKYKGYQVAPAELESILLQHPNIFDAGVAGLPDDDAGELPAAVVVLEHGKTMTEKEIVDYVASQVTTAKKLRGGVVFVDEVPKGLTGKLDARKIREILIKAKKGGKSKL
# Chain of Nonstructural protein 1 (Q194T2 whole entry): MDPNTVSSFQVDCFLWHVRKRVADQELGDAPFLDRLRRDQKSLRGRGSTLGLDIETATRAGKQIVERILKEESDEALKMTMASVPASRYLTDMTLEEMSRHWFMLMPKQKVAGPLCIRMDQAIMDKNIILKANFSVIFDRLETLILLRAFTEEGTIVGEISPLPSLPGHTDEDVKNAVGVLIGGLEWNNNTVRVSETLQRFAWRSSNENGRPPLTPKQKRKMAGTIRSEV
# T3 sequence (P11940 whole entry, the tested form may be a part): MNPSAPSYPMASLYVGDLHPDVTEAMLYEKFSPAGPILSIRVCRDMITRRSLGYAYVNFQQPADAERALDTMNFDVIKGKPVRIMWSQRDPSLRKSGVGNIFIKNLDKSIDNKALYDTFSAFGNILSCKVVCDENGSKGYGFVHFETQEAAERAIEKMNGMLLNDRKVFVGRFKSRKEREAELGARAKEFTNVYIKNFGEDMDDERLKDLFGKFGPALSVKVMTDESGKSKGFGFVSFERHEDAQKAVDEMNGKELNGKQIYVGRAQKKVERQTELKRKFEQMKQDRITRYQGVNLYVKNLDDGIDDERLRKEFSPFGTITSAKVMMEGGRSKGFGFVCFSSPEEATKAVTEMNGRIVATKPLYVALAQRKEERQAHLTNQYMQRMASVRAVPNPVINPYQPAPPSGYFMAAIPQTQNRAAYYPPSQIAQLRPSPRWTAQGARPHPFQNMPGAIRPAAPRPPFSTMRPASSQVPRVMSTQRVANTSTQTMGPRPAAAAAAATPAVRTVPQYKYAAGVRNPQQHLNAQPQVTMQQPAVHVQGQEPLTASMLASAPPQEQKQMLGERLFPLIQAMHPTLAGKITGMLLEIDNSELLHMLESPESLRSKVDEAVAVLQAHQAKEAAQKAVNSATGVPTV
# Chain of Cytochrome P450 2C9 (P11712 whole entry, the tested form may be a part): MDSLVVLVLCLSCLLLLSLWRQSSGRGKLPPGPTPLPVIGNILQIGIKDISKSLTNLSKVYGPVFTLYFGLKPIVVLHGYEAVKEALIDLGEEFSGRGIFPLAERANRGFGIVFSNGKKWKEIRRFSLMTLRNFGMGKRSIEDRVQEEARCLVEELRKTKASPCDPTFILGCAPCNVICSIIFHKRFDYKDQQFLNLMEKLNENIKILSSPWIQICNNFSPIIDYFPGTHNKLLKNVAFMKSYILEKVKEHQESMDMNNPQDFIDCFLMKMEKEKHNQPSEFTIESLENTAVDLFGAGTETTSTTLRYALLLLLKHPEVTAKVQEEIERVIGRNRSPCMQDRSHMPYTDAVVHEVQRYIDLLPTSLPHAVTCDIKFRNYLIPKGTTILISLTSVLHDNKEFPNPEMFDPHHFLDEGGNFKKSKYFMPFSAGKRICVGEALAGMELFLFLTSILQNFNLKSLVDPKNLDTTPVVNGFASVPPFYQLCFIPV
# Chain of Cytochrome P450 2D6 (P10635 whole entry): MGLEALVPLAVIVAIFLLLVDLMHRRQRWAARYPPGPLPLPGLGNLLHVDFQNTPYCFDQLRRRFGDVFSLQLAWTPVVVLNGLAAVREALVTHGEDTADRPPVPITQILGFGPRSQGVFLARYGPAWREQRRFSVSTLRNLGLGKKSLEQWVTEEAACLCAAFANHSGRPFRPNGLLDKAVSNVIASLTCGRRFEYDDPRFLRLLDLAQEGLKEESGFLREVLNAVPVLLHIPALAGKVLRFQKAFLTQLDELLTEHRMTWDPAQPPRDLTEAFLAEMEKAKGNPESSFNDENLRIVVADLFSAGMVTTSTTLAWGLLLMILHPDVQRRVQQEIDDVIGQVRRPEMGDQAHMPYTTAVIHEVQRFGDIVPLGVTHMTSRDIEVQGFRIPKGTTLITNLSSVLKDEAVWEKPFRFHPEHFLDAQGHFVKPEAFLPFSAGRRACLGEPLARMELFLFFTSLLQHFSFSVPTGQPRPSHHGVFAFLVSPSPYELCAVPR
# Chain of Cytochrome P450 3A4 (P08684 whole entry): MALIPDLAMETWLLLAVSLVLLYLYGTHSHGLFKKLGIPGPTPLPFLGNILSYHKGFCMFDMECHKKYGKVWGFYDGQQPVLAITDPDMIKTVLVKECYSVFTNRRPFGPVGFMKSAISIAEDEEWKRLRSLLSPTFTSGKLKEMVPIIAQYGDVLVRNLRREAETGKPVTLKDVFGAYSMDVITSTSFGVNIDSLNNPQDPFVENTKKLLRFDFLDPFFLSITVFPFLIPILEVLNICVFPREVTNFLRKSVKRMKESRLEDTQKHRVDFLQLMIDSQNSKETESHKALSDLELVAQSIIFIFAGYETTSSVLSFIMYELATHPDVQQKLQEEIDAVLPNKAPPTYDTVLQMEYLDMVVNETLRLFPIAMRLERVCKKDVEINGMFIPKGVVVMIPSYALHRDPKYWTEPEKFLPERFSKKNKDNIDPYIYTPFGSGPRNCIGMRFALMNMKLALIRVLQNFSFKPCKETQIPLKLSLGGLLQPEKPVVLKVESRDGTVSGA
smiles,measurement,setting,value
Cc1onc(-c2ccccc2Cl)c1C(=O)NCCn1c(C)cc2ccccc21,IC50,Nonstructural protein 1,> 100 µM (active)
O=C(OCc1ccccn1)c1ccc(COc2ccccc2Cl)o1,AC50,Cytochrome P450 3A4,31.6 µM (inconclusive)
same,IC50,cells,35.1 µM (active)
same,AC50,Cytochrome P450 2D6,17.8 µM (inconclusive)
same,AC50,Cytochrome P450 2C9,39.8 µM (inconclusive)
O=C(COC(=O)c1cc(-c2cccs2)nc2ccccc12)NCc1ccco1,IC50,[1],9.73 µM (active)
Cc1ccc(NC(=O)Nc2cccc(Cl)c2)c(C(=O)O)c1,EC50,[2],17.2 µM (active)
same,EC50,[3],> 112 µM (not active)
O=S(=O)(NCCc1csc(-c2cccnc2)n1)c1ccc2c(c1)OCCO2,EC50,[4],> 120 µM (not active)
same,EC50,[2],> 112 µM (not active)
same,EC50,[5],> 120 µM (not active)
same,EC50,[3],> 112 µM (not active)
same,EC50,[6],16.4 µM (active)
Cc1ccccc1[S+]([O-])Cc1ccc(C(=O)N2CCN(C(=O)c3ccco3)CC2)o1 (stereo not given),IC50,Protein skinhead-1,> 100 µM (inactive)
N#Cc1nc(-c2cccs2)oc1NCCc1ccccc1,IC50,cells,7.45 µM (active)
Cc1nc2sccn2c(=O)c1S(=O)(=O)N1CCN(c2ccc(F)cc2)CC1,EC50,[2],> 112 µM (not active)
same,EC50,[3],> 112 µM (not active)
O=C1c2ccccc2C(=O)c2c1ccc(C(=O)N1CCCCC1)c2NCCO,IC50,Protein skinhead-1,> 100 µM (inactive)
CCc1ccc(NC(=O)c2cc(-c3ccco3)on2)cc1,IC50,Protein skinhead-1,> 100 µM (inactive)
CCCCN=C(S)Nc1ccc(OC)nc1,IC50,[7],43.7 µM (inactive)
same,IC50,[8],> 66 µM (inactive)
O=C1NC(c2ccccn2)Nc2sc3c(c21)CCC3 (stereo not given),IC50,Nonstructural protein 1,54.2 µM (active)
c1ccc(-c2cn(C[C@H]3CC[C@H](Cn4cc(-c5ccccn5)nn4)O3)nn2)nc1,IC50,Nonstructural protein 1,3.19 µM (active)
CSc1cc(-c2ccco2)oc1C(=O)c1ccco1,IC50,Protein skinhead-1,> 100 µM (inactive)
same,EC50,[9],> 260 µM (inactive)
O=C1c2cc(Br)ccc2OC2C=CC=CC12 (stereo not given),IC50,Protein skinhead-1,81 µM (inactive)
COc1cc(C(=O)N/N=C/c2ccc(OC(=O)c3ccccc3)c(OC)c2)ccc1O,IC50,H9c2,> 79 µM (inactive)
CO/N=C/CC(=O)c1ccc(OC)cc1,IC50,cells,22.9 µM (active)
CCSc1ncc(/C=N/Nc2ccc(Cl)cc2)n1C,IC50,cells,> 50 µM (active)
same,AC50,[10],3.3 µM (active)
Cc1cc(C(=O)N/N=C/c2cccc([N+](=O)[O-])c2O)[nH]n1,IC50,Nonstructural protein 1,7.33 µM (active)
COc1cccc(/C=N/NC(=O)c2ccc(O)nn2)c1O,EC50,[11],31.7 µM (active)
Cc1nc2ccccc2n1/C(=N/S(=O)(=O)c1ccc(Br)cc1)c1ccccc1,EC50,[2],> 112 µM (not active)
same,EC50,[3],> 112 µM (not active)
CC(C)[N+](C)(CCC(C(N)=O)(c1ccccc1)c1ccccc1)C(C)C [ISOPROPAMIDE IODIDE],IC50,[1],3.27 µM (active)
